Measurements as given in PubChem BioAssay (NCI).
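Briefly, cells in 96-well plates were exposed to five compound concentrations for 48 h, and endpoints were estimated by linear interpolation. GI50 marks 50% less growth. Definition used: TGI = concentration required for complete inhibition of growth.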

Columns and labels:
Assay in all cases: NCI anticancer screen, dose series, 48 h
786-0 renal = test system: 786-0 renal
A498 renal = test system: A498 renal
A549 NSCLC = test system: A549 NSCLC
ACHN renal = test system: ACHN renal
BT-549 breast = test system: BT-549 breast
CAKI-1 renal = test system: CAKI-1 renal
CCRF-CEM leukemia = test system: CCRF-CEM leukemia
COLO 205 colon = test system: COLO 205 colon
DU-145 prostate = test system: DU-145 prostate
EKVX NSCLC = test system: EKVX NSCLC
HCC-2998 colon = test system: HCC-2998 colon
HCT-116 colon = test system: HCT-116 colon
HCT-15 colon = test system: HCT-15 colon
HL-60(TB) leukemia = test system: HL-60(TB) leukemia
HOP-62 NSCLC = test system: HOP-62 NSCLC
HOP-92 NSCLC = test system: HOP-92 NSCLC
HS 578T breast = test system: HS 578T breast
IGROV1 ovarian = test system: IGROV1 ovarian
K-562 leukemia = test system: K-562 leukemia
KM12 colon = test system: KM12 colon
LOX IMVI melanoma = test system: LOX IMVI melanoma
M14 melanoma = test system: M14 melanoma
MALME-3M melanoma = test system: MALME-3M melanoma
MCF7 breast = test system: MCF7 breast
MDA-MB-231 breast = test system: MDA-MB-231 breast
MDA-MB-435 = test system: MDA-MB-435
MDA-MB-468 breast = test system: MDA-MB-468 breast
MOLT-4 leukemia = test system: MOLT-4 leukemia
NCI-H226 lung = test system: NCI-H226 lung
NCI-H23 lung = test system: NCI-H23 lung
NCI-H460 lung = test system: NCI-H460 lung
NCI-H522 lung = test system: NCI-H522 lung
NCI/ADR-RES ovarian = test system: NCI/ADR-RES ovarian
OVCAR-3 ovarian = test system: OVCAR-3 ovarian
OVCAR-4 ovarian = test system: OVCAR-4 ovarian
OVCAR-5 ovarian = test system: OVCAR-5 ovarian
OVCAR-8 ovarian = test system: OVCAR-8 ovarian
PC-3 prostate = test system: PC-3 prostate
RPMI-8226 leukemia = test system: RPMI-8226 leukemia
RXF 393 renal = test system: RXF 393 renal
SF-268 CNS = test system: SF-268 CNS
SF-295 CNS = test system: SF-295 CNS
SF-539 CNS = test system: SF-539 CNS
SK-MEL-2 melanoma = test system: SK-MEL-2 melanoma
SK-MEL-28 melanoma = test system: SK-MEL-28 melanoma
SK-MEL-5 melanoma = test system: SK-MEL-5 melanoma
SK-OV-3 ovarian = test system: SK-OV-3 ovarian
SN12C renal = test system: SN12C renal
SNB-19 CNS = test system: SNB-19 CNS
SNB-75 CNS = test system: SNB-75 CNS
SR leukemia = test system: SR leukemia
T-47D breast = test system: T-47D breast
TK-10 renal = test system: TK-10 renal
U251 CNS = test system: U251 CNS
UACC-257 melanoma = test system: UACC-257 melanoma
UACC-62 melanoma = test system: UACC-62 melanoma
UO-31 renal = test system: UO-31 renal

`COc1ccc(C(=O)Nc2sc3c(c2C#N)CCC(=O)C3)cc1C(F)(F)F` gave a GI50 (786-0 renal) of 1.82 µM, a TGI (786-0 renal) of 7.27 µM and a GI50 (A498 renal) of 5.74 µM. The TGI (A498 renal) was 36.1 µM, the GI50 (A549 NSCLC) was 2.78 µM and the TGI (A549 NSCLC) was greater than 100 µM. It also gave a GI50 (ACHN renal) of 0.375 µM, a TGI (ACHN renal) of 1.26 µM and a GI50 (BT-549 breast) of 0.564 µM. It also gave a TGI (BT-549 breast) of 1.92 µM, a GI50 (CAKI-1 renal) of 0.491 µM and a TGI (CAKI-1 renal) of 1.84 µM. It also gave a GI50 (CCRF-CEM leukemia) of 0.27 µM, a TGI (CCRF-CEM leukemia) greater than 100 µM and a GI50 (COLO 205 colon) of 0.582 µM. It also gave a TGI (COLO 205 colon) of 1.62 µM, a GI50 (DU-145 prostate) of 2.91 µM and a TGI (DU-145 prostate) greater than 30.4 µM. It also gave a GI50 (EKVX NSCLC) of 2.35 µM, a TGI (EKVX NSCLC) of 8.76 µM and a GI50 (HCC-2998 colon) of 1.45 µM. The TGI (HCC-2998 colon) was 3.2 µM, the GI50 (HCT-116 colon) was 0.299 µM and the TGI (HCT-116 colon) was 1.58 µM. It also gave a GI50 (HCT-15 colon) of 0.385 µM, a TGI (HCT-15 colon) of 1.49 µM and a GI50 (HL-60(TB) leukemia) of 0.339 µM. It also gave a TGI (HL-60(TB) leukemia) of 5.78 µM, a GI50 (HOP-62 NSCLC) of 2.65 µM and a TGI (HOP-62 NSCLC) of 8.88 µM. For the same compound, the GI50 (HOP-92 NSCLC) was 0.708 µM, the TGI (HOP-92 NSCLC) was 2.53 µM and the GI50 (HS 578T breast) was 0.862 µM. The TGI (HS 578T breast) was 3.68 µM, the GI50 (IGROV1 ovarian) was 1.29 µM and the TGI (IGROV1 ovarian) was 2.97 µM. It also gave a GI50 (K-562 leukemia) of 0.294 µM, a TGI (K-562 leukemia) greater than 100 µM and a GI50 (KM12 colon) of 0.584 µM. It also gave a TGI (KM12 colon) of 2.21 µM, a GI50 (LOX IMVI melanoma) of 0.416 µM and a TGI (LOX IMVI melanoma) of 1.65 µM. For the same compound, the GI50 (M14 melanoma) was 0.499 µM, the TGI (M14 melanoma) was 1.92 µM and the GI50 (MALME-3M melanoma) was 0.37 µM. The TGI (MALME-3M melanoma) was 1.42 µM, the GI50 (MCF7 breast) was 0.408 µM and the TGI (MCF7 breast) was 3.15 µM. The GI50 (MDA-MB-231 breast) was 1.14 µM, the TGI (MDA-MB-231 breast) was 2.6 µM and the GI50 (MDA-MB-435) was 0.594 µM. The TGI (MDA-MB-435) was 2.06 µM, the GI50 (MDA-MB-468 breast) was 0.495 µM and the TGI (MDA-MB-468 breast) was 1.48 µM. It also gave a GI50 (MOLT-4 leukemia) of 0.322 µM, a TGI (MOLT-4 leukemia) greater than 19.7 µM and a GI50 (NCI-H226 lung) of 2.31 µM. It also gave a TGI (NCI-H226 lung) of 7.09 µM, a GI50 (NCI-H23 lung) of 0.537 µM and a TGI (NCI-H23 lung) of 2.71 µM. For the same compound, the GI50 (NCI-H460 lung) was 2.11 µM, the TGI (NCI-H460 lung) was 6.73 µM and the GI50 (NCI-H522 lung) was 0.225 µM. It also gave a TGI (NCI-H522 lung) of 0.753 µM, a GI50 (NCI/ADR-RES ovarian) of 1.3 µM and a TGI (NCI/ADR-RES ovarian) of 3.64 µM. The GI50 (OVCAR-3 ovarian) was 0.845 µM, the TGI (OVCAR-3 ovarian) was 2.44 µM and the GI50 (OVCAR-4 ovarian) was 1.11 µM. For the same compound, the TGI (OVCAR-4 ovarian) was 2.76 µM, the GI50 (OVCAR-5 ovarian) was 1.96 µM and the TGI (OVCAR-5 ovarian) was 4.84 µM. It also gave a GI50 (OVCAR-8 ovarian) of 1.28 µM, a TGI (OVCAR-8 ovarian) of 3.71 µM and a GI50 (PC-3 prostate) of 0.317 µM. It also gave a TGI (PC-3 prostate) of 4 µM, a GI50 (RPMI-8226 leukemia) of 0.145 µM and a GI50 (RXF 393 renal) of 0.434 µM. The TGI (RXF 393 renal) was 1.69 µM, the GI50 (SF-268 CNS) was 2.03 µM and the TGI (SF-268 CNS) was 6.6 µM. For the same compound, the GI50 (SF-295 CNS) was 1.79 µM, the TGI (SF-295 CNS) was 4.78 µM and the GI50 (SF-539 CNS) was 0.343 µM. The TGI (SF-539 CNS) was 1.28 µM, the GI50 (SK-MEL-2 melanoma) was 1.67 µM and the TGI (SK-MEL-2 melanoma) was 4.06 µM. It also gave a GI50 (SK-MEL-28 melanoma) of 0.882 µM, a TGI (SK-MEL-28 melanoma) of 2.33 µM and a GI50 (SK-MEL-5 melanoma) of 1.35 µM. It also gave a TGI (SK-MEL-5 melanoma) of 2.66 µM, a GI50 (SK-OV-3 ovarian) of 2.48 µM and a TGI (SK-OV-3 ovarian) of 6.71 µM. It also gave a GI50 (SN12C renal) of 0.966 µM, a TGI (SN12C renal) of 6.19 µM and a GI50 (SNB-19 CNS) of 2.5 µM. It also gave a TGI (SNB-19 CNS) of 10.5 µM, a GI50 (SNB-75 CNS) of 1.22 µM and a TGI (SNB-75 CNS) of 3.68 µM. It also gave a GI50 (SR leukemia) of 0.339 µM, a TGI (SR leukemia) greater than 100 µM and a GI50 (T-47D breast) of 0.352 µM. It also gave a TGI (T-47D breast) of 2.08 µM, a GI50 (TK-10 renal) of 1.21 µM and a TGI (TK-10 renal) of 7.6 µM. The GI50 (U251 CNS) was 0.723 µM, the TGI (U251 CNS) was 2.53 µM and the GI50 (UACC-257 melanoma) was 1.6 µM. The TGI (UACC-257 melanoma) was 3.92 µM, the GI50 (UACC-62 melanoma) was 0.826 µM and the TGI (UACC-62 melanoma) was 2.21 µM. It also gave a GI50 (UO-31 renal) of 0.422 µM and a TGI (UO-31 renal) of 1.62 µM.
